In the OligoGym collection:
Values joined by “and” are separate entries in the source; they are usually repeats but may differ in a detail not shown here. Identical values can stand only once. After the bases stand the sugars from the 5' end (letter, count) and the backbone: PS all phosphorothioate, else s phosphorothioate and o phosphodiester by linkage. Methylation of C is not given here. e = 2'-O-(2-methoxyethyl) (MOE); k = constrained ethyl (cEt); d = 2'-deoxy (DNA)

Molecular target: IRF4
Details: ASO

| Sequence | target mRNA inhibition (SK-MEL-28, 4 µM) [%] | target mRNA inhibition (MM.1R, 1 µM) | also measured |
| --- | --- | --- | --- |
| CAGCATCTAAGGCAAG (sugars k3 d10 k3, PS) | 54 | – | – |
| CAGGAAACCGCTGGCA (sugars k3 d10 k3, PS) | 74 | – | – |
| CAGGAACTGACCTAAC (sugars k3 d10 k3, PS) | – | -7% | – |
| CAGGCGGACACGCCCG (sugars k3 d10 k3, PS) | – | -5% | – |
| CAGGGAGCGGCCGTGG (sugars k3 d10 k3, PS) | 17 | – | – |
| CAGTAACTTGACTTGA (sugars k3 d10 k3, PS) | 39 | – | – |
| CAGTGACTTGCATCCA (sugars kddddddddddkekek, PS) | – | 29% | – |
| CAGTGACTTGCATCCA (sugars kdddddddddkekeke, PS) | – | 19% | – |
| CAGTGACTTGCATCCA (sugars kkddddddddddkeke, PS) | – | 33% | – |
| CAGTGATGTCAGGTTT (sugars k3 d10 k3, PS) | – | 62% | target mRNA inhibition (MM.1R, 0.074 µM): 22%; target mRNA inhibition (MM.1R, 0.222 µM): 39%; target mRNA inhibition (MM.1R, 0.666 µM): 62%; target mRNA inhibition (MM.1R, 2 µM): 85% |
| CAGTGATGTCAGGTTT (sugars kdddddddddkekeke, PS) | – | 48% | – |
| CAGTGATGTCAGGTTT (sugars kkdddddddddkdkdk, PS) | – | 47% | target mRNA inhibition (MM.1R, 0.074 µM): 5%; target mRNA inhibition (MM.1R, 0.222 µM): 23%; target mRNA inhibition (MM.1R, 0.666 µM): 40%; target mRNA inhibition (MM.1R, 2 µM): 67% |
| CAGTGATGTCAGGTTT (sugars kkdddddddddkekek, PS) | – | 64% | target mRNA inhibition (MM.1R, 0.074 µM): 8%; target mRNA inhibition (MM.1R, 0.222 µM): 28%; target mRNA inhibition (MM.1R, 0.666 µM): 53%; target mRNA inhibition (MM.1R, 2 µM): 77% |
| CAGTGATGTCAGGTTT (sugars kkkddddddddkekek, PS) | – | 56% | target mRNA inhibition (MM.1R, 0.074 µM): 19%; target mRNA inhibition (MM.1R, 0.222 µM): 40%; target mRNA inhibition (MM.1R, 0.666 µM): 56%; target mRNA inhibition (MM.1R, 2 µM): 74% |
| CAGTGGAGCTCCACAG (sugars k3 d10 k3, PS) | 41 | – | – |
| CAGTTGTAAATGAGTC (sugars k2 d9 e3 k2, PS) | – | 62% | target mRNA inhibition (H929, 0.00067 µM): 26%; target mRNA inhibition (H929, 0.002 µM): 46%; target mRNA inhibition (H929, 0.00667 µM): 64%; target mRNA inhibition (H929, 0.02 µM): 72%; target mRNA inhibition (H929, 0.04 µM): 50%; target mRNA inhibition (KMS11, 0.2 µM): 83% and 91%; target mRNA inhibition (MM.1R, 0.074 µM): 10%; target mRNA inhibition (MM.1R, 0.222 µM): 28%; target mRNA inhibition (MM.1R, 0.666 µM): 52%; target mRNA inhibition (MM.1R, 2 µM): 77% |
| CAGTTGTAAATGAGTC (sugars kdddddddddkekeke, PS) | – | 62% | target mRNA inhibition (H929, 0.00067 µM): 9%; target mRNA inhibition (H929, 0.002 µM): 26%; target mRNA inhibition (H929, 0.00667 µM): 39%; target mRNA inhibition (H929, 0.02 µM): 48%; target mRNA inhibition (H929, 0.04 µM): 27%; target mRNA inhibition (KMS11, 0.2 µM): 62% and 74%; target mRNA inhibition (MM.1R, 0.074 µM): 20%; target mRNA inhibition (MM.1R, 0.222 µM): 36%; target mRNA inhibition (MM.1R, 0.666 µM): 59%; target mRNA inhibition (MM.1R, 2 µM): 79% |
| CAGTTGTAAATGAGTC (sugars kkddddddddddkeke, PS) | – | 59% | target mRNA inhibition (MM.1R, 0.074 µM): 19%; target mRNA inhibition (MM.1R, 0.222 µM): 35%; target mRNA inhibition (MM.1R, 0.666 µM): 49%; target mRNA inhibition (MM.1R, 2 µM): 73% |
| CAGTTGTAAATGAGTC (sugars kkkdddddddddkeke, PS) | – | 58% | target mRNA inhibition (MM.1R, 0.074 µM): 21%; target mRNA inhibition (MM.1R, 0.222 µM): 28%; target mRNA inhibition (MM.1R, 0.666 µM): 57%; target mRNA inhibition (MM.1R, 2 µM): 80% |
| CAGTTGTAAATGAGTC (sugars kkkddddddddkekek, PS) | – | 76% | target mRNA inhibition (MM.1R, 0.074 µM): 26%; target mRNA inhibition (MM.1R, 0.222 µM): 52%; target mRNA inhibition (MM.1R, 0.666 µM): 75%; target mRNA inhibition (MM.1R, 2 µM): 88% |
| CATAACACGGTGTTGA (sugars k3 d10 k3, PS) | 36 | – | – |
| CATACAGTGTGATTAA (sugars k3 d10 k3, PS) | 53 | – | – |
| CATACCTACAAGCAGT (sugars k3 d10 k3, PS) | 43 | – | – |

| Sequence | target mRNA inhibition (SK-MEL-28, 4 µM) [%] | target mRNA inhibition (MM.1R, 1 µM) | also measured |
| --- | --- | --- | --- |
| CATAGGTCCTTCAGAT (sugars k3 d10 k3, PS) | – | -5% | – |
| CATCCGAAAAGACTGG (sugars k3 d10 k3, PS) | – | 14% | – |
| CATCGAGATCAGTCTC (sugars k3 d10 k3, PS) | 65 | – | – |
| CATGAGCTCGGTCAAC (sugars k3 d10 k3, PS) | – | -1% | – |
| CATGGAGGATCATAAA (sugars k3 d10 k3, PS) | 22 | – | – |
| CATGGGACATTGGTAC (sugars k3 d10 k3, PS) | – | 18% | – |
| CATGGGAGATCCGGCA (sugars k3 d10 k3, PS) | 41 | – | – |
| CATGTAGTTGTGAACC (sugars k3 d10 k3, PS) | 27 | – | – |
| CATTAAAGAGTGGTAC (sugars k3 d10 k3, PS) | -3 | – | – |
| CATTAGCAATTAGCTC (sugars k3 d10 k3, PS) | – | -37% | – |
| CATTCCCTAGGTCATA (sugars k3 d10 k3, PS) | 54 | – | – |
| CATTTCATTTAATGTC (sugars k4 d8 k4, PS) | 44 | – | – |
| CATTTTATGGACCACG (sugars k3 d10 k3, PS) | 62 | – | – |
| CCAAAGCATAGAGTCA (sugars k3 d10 k3, PS) | 58 | – | – |
| CCAAAGGCTCCCGACA (sugars k3 d10 k3, PS) | 29 | – | – |
| CCAAATGACTTAGTCA (sugars k3 d10 k3, PS) | 51 | – | – |
| CCAAGATCGAGCGGTG (sugars k3 d10 k3, PS) | 37 | – | – |
| CCAAGGCTACAGGCAC (sugars k3 d10 k3, PS) | 63 | – | – |
| CCAAGTAATTTTAAGG (sugars k3 d10 k3, PS) | 34 | – | – |
| CCAATAGTCTAGCTGG (sugars k3 d10 k3, PS) | 19 | – | – |
| CCACAACTCTCGCCTC (sugars k3 d10 k3, PS) | – | -9% | – |
| CCACAACTGCAGTTTG (sugars k3 d10 k3, PS) | 23 | – | – |
| CCACAAGAAAGAGACC (sugars k3 d10 k3, PS) | -9 | – | – |

| Sequence | target mRNA inhibition (SK-MEL-28, 4 µM) [%] | target mRNA inhibition (MM.1R, 1 µM) | also measured |
| --- | --- | --- | --- |
| CCACAAGCAGTGATGT (sugars k3 d10 k3, PS) | – | 16% | – |
| CCAGGGTGAGCTGCTT (sugars k3 d10 k3, PS) | 31 | – | – |
| CCAGGTTCATGCCCCG (sugars k3 d10 k3, PS) | 54 | – | – |
| CCATATACATTGAGGC (sugars k3 d10 k3, PS) | 44 | – | – |
| CCCAAAGAGAGTGGGT (sugars k3 d10 k3, PS) | 0 | – | – |
| CCCAAGCCTTGAAGAG (sugars k3 d10 k3, PS) | 6 | – | – |
| CCCACACCAGCCCGGG (sugars k4 d8 k4, PS) | -6 | – | – |
| CCCACATGTCCCGTGG (sugars k3 d10 k3, PS) | 5 | – | – |
| CCCACGAAGGGCAGTG (sugars k3 d10 k3, PS) | 35 | – | – |
| CCCACGGACGGAGGCG (sugars k3 d10 k3, PS) | -9 | – | – |
| CCCATATACATTGAGG (sugars k3 d10 k3, PS) | – | 16% | – |
| CCCCAAAATACTTTGC (sugars k3 d10 k3, PS) | 100 | – | – |
| CCCCAGTCTACTGCTG (sugars k3 d10 k3, PS) | 47 | – | – |
| CCCCGAATAGGACCCC (sugars k3 d10 k3, PS) | 56 | – | – |
| CCCCGAGCTGCACACG (sugars k3 d10 k3, PS) | – | -5% | – |
| CCCCGCGGTCCCGCTG (sugars k3 d10 k3, PS) | 41 | – | – |
| CCCCGGAAGAAGGCAC (sugars k3 d10 k3, PS) | 36 | – | – |
| CCCCTTAGGAACGAAG (sugars k3 d10 k3, PS) | – | -6% | – |
| CCCGACCCTCCCCAAC (sugars k3 d10 k3, PS) | – | -35% | – |
| CCCGGCCGATCATCAA (sugars k3 d10 k3, PS) | – | 23% | – |
| CCCTACCTTTTTTGGC (sugars k3 d10 k3, PS) | – | -7% | – |
| CCCTAGATAACATGAG (sugars k3 d10 k3, PS) | 17 | – | – |
| CCCTATCACTGCCAAG (sugars k3 d10 k3, PS) | 38 | – | – |

| Sequence | target mRNA inhibition (SK-MEL-28, 4 µM) [%] | target mRNA inhibition (MM.1R, 1 µM) | also measured |
| --- | --- | --- | --- |
| CCCTTAGGAACGAAGA (sugars k3 d10 k3, PS) | -6 | – | – |
| CCGAATAGGACCCCTA (sugars k3 d10 k3, PS) | 32 | – | – |
| CCGACACGCGCCGCTC (sugars k3 d10 k3, PS) | 30 | – | – |
| CCGATGCTTCAAGACA (sugars k3 d10 k3, PS) | – | 13% | – |
| CCGCACGCAAGGCTCG (sugars k3 d10 k3, PS) | 16 | – | – |
| CCGCGAAGGCTCCTAC (sugars k3 d10 k3, PS) | 14 | – | – |
| CCGGAGCAGGCCCGGG (sugars k3 d10 k3, PS) | -13 | – | – |
| CCGGAGGCCGCCGTGA (sugars k3 d10 k3, PS) | 13 | – | – |
| CCGGTAGAGTGAGATG (sugars k3 d10 k3, PS) | – | -3% | – |
| CCGTATCCCCGTATCA (sugars k3 d10 k3, PS) | 35 | – | – |
| CCGTGATCTGAGACTA (sugars k3 d10 k3, PS) | – | 45% and 30% | target mRNA inhibition (MM.1R, 0.0625 µM): 0%; target mRNA inhibition (MM.1R, 0.25 µM): 13%; target mRNA inhibition (MM.1R, 4 µM): 71% |
| CCTACACAGGCTAATC (sugars k3 d10 k3, PS) | 13 | – | – |
| CCTACTGGGTACATGG (sugars k3 d10 k3, PS) | 63 | – | – |
| CCTATAACTTCTCCTG (sugars k3 d10 k3, PS) | – | -7% | – |
| CCTCAGGAAATGTCCA (sugars k3 d10 k3, PS) | 37 | – | – |
| CCTCAGGAAATGTCCA (sugars k4 d8 k4, PS) | 10 | – | – |
| CCTCAGTTTGTGAAGC (sugars kddddddddddkekek, PS) | – | 26% | – |
| CCTCAGTTTGTGAAGC (sugars kkdddddddddkdkdk, PS) | – | 8% | – |
| CCTGAAAAGAGCCGCC (sugars k3 d10 k3, PS) | – | -3% | – |
| CCTGAATTTACAGCAT (sugars k3 d10 k3, PS) | 40 | – | – |
| CCTGAGTTACCGCATT (sugars k3 d10 k3, PS) | – | 24% | – |
